# Measured values as given in the supplement of paper PMC11061612.
# Assays:
# [1] = tested on: Ca9-22 (Head and Neck Carcinoma); experiment: Bliss excess, mean over the matrix (fraction); higher = more synergy
# How it was run: (§1)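 After 24 hours at 37°C and 5% CO2 in 1536-well plates, cells in DMEM/F12 or RPMI plus 10% FBS received two-drug dose matrices for 72 hours. Viability came from CellTiter-Glo 2.0 luminescence and was scaled as inhibition, anchored at 0 by vehicle wells and at 1 by blank wells. Combination Emax is taken as the second-highest inhibition in the matrix, and Bliss excess as the observed combination effect less EA + EB − EA·EB, with EA and EB the single-agent effects.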
# [2] = tested on: LU-65 (Non-Small Cell Lung Carcinoma); experiment: as above
# How it was run: as §1
# YH-13 (Glioblastoma) = experiment: as above
# How it was run: as §1
# ACHN (Kidney Carcinoma) = experiment: as above
# How it was run: as §1
# [3] = tested on: Caov-4 (Ovarian Carcinoma); experiment: as above
# How it was run: as §1
# NB69 (Neuroblastoma) = experiment: as above
# How it was run: as §1
# [4] = tested on: BT-549 (Breast Carcinoma); experiment: as above
# How it was run: as §1
# EW-24 (Ewing's Sarcoma) = experiment: as above
# How it was run: as §1
# TGW (Neuroblastoma) = experiment: as above
# How it was run: as §1
# TK10 (Kidney Carcinoma) = experiment: as above
# How it was run: as §1
# [5] = tested on: C-4-I (Cervical Carcinoma); experiment: combination Emax (second highest fraction inhibited in the dose matrix, 72 h); higher = more inhibition; extreme values may be limits of the assay
# How it was run: as §1
# [6] = tested on: KMOE-2 (Acute Myeloid Leukemia); experiment: as above
# How it was run: as §1
# [7] = tested on: HOP-62 (Lung Adenocarcinoma); experiment: as above
# How it was run: as §1
# [8] = tested on: TE-1 (Esophageal Squamous Cell Carcinoma); experiment: as above
# How it was run: as §1
# [9] = tested on: JVM-3 (B-Cell Non-Hodgkin's Lymphoma); experiment: as above
# How it was run: as §1
# [10] = tested on: NEC8 (Other Solid Carcinomas); experiment: as above
# How it was run: as §1
# [11] = tested on: NUGC-3 (Gastric Carcinoma); experiment: as above
# How it was run: as §1
# [12] = tested on: HGC-27 (Gastric Carcinoma); experiment: as above
# How it was run: as §1
# [13] = tested on: VA-ES-BJ (Other Solid Carcinomas); experiment: as above
# How it was run: as §1
# [14] = tested on: OVCAR-4 (Ovarian Carcinoma); experiment: as above
# How it was run: as §1
# 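For Bliss excess, mean over the matrix in this document: after 72 h of two-drug dosing.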
SMILES,Bliss excess [1],Bliss excess [2],Bliss excess (YH-13 (Glioblastoma)),Bliss excess (ACHN (Kidney Carcinoma)),Bliss excess [3],Bliss excess (NB69 (Neuroblastoma)),Bliss excess [4],Bliss excess (EW-24 (Ewing's Sarcoma)),Bliss excess (TGW (Neuroblastoma)),Bliss excess (TK10 (Kidney Carcinoma)),combination Emax [5],combination Emax [6],combination Emax [7],combination Emax [8],combination Emax [9],combination Emax [10],combination Emax [11],combination Emax [12],combination Emax [13],combination Emax [14]
"CN(CCO)CC[C@H](CSc1ccccc1)Nc1ccc(S(=O)(=O)NC(=O)c2ccc(N3CCC([C@@H](O)c4ccccc4-c4ccc(Cl)cc4)CC3)cc2)cc1S(=O)(=O)C(F)(F)F [AZD4320] + C1CN(CCC1(C(=O)N[C@@H](CCO)C2=CC=C(C=C2)Cl)N)C3=NC=NC4=C3C=CN4 [Capivasertib] (first compound max 1 µM, 7x7, partner max 3 µM)",-0.0055,-0.0108,-0.0491,-0.0341,-0.0357,-0.0554,-0.0094,-0.0378,0.0065,-0.0676,0.145,0.828,0.115,0.369,0.889,0.0891,0.127,0.775,0.224,0.0826
"CN(CCO)CC[C@H](CSc1ccccc1)Nc1ccc(S(=O)(=O)NC(=O)c2ccc(N3CCC([C@@H](O)c4ccccc4-c4ccc(Cl)cc4)CC3)cc2)cc1S(=O)(=O)C(F)(F)F [AZD4320] + C=CCn1c(=O)c2cnc(Nc3ccc(N4CCN(C)CC4)cc3)nc2n1-c1cccc(C(C)(C)O)n1 [AZD1775] (first compound max 1 µM, partner max 1 µM)",0.0335,-0.0162,-0.0163,0.0342,-0.0248,0.0032,0.0109,0.119,-0.008,0.0515,0.946,1,0.458,0.824,1,0.414,0.764,0.543,0.458,0.662
"CN(CCO)CC[C@H](CSc1ccccc1)Nc1ccc(S(=O)(=O)NC(=O)c2ccc(N3CCC([C@@H](O)c4ccccc4-c4ccc(Cl)cc4)CC3)cc2)cc1S(=O)(=O)C(F)(F)F [AZD4320] + CC(=O)O[C@H]1C(=O)[C@@]2(C)[C@H]([C@H](OC(=O)c3ccccc3)[C@]3(O)C[C@H](OC(=O)[C@H](O)[C@@H](NC(=O)c4ccccc4)c4ccccc4)C(C)=C1C3(C)C)[C@]1(OC(C)=O)CO[C@@H]1C[C@@H]2O [Paclitaxel] (first compound max 1 µM, 7x7, partner max 3 µM)",0.037,0.0224,0.0619,-0.0319,0.0863,0.0148,0.0578,0.17,-0.0472,0.0195,–,–,–,–,–,–,–,–,–,–
"CN(CCO)CC[C@H](CSc1ccccc1)Nc1ccc(S(=O)(=O)NC(=O)c2ccc(N3CCC([C@@H](O)c4ccccc4-c4ccc(Cl)cc4)CC3)cc2)cc1S(=O)(=O)C(F)(F)F [AZD4320] + CCN(CCO)CCCOc1ccc2c(Nc3cc(CC(=O)Nc4cccc(F)c4)[nH]n3)ncnc2c1 [AZD2811] (first compound max 1 µM, 7x7, partner max 1 µM)",0.0591,-0.0437,0.0819,0.0089,-0.0141,-0.0077,0.0218,0.0538,-0.032,-0.0199,0.657,0.934,0.359,0.655,1,0.159,0.498,0.96,0.291,0.389
"CN(CCO)CC[C@H](CSc1ccccc1)Nc1ccc(S(=O)(=O)NC(=O)c2ccc(N3CCC([C@@H](O)c4ccccc4-c4ccc(Cl)cc4)CC3)cc2)cc1S(=O)(=O)C(F)(F)F [AZD4320] + Nc1ccn([C@@H]2O[C@H](CO)[C@@H](O)C2(F)F)c(=O)n1 [Gemcitabine] (first compound max 1 µM, 7x7, partner max 0.3 µM)",0.0876,-0.0667,0.0368,0.0947,-0.0556,-0.0203,-0.0365,0.118,0.0257,0.0032,–,–,–,–,–,–,–,–,–,–
"Cc1cc2ncnn2cc1Nc1ncc2c(n1)n(C1CCOCC1)c(=O)n2C [AZD7648] + COc1cc([C@@H]2c3cc4c(cc3[C@@H](O[C@@H]3O[C@@H]5CO[C@@H](C)O[C@H]5[C@H](O)[C@H]3O)[C@H]3COC(=O)[C@H]23)OCO4)cc(OC)c1O [Etoposide] (first compound max 10 µM, 7x7, partner max 10 µM)",0.141,0.0212,0.0877,0.0535,0.0606,-0.0239,0.0306,0.0463,0.0615,0.0187,–,–,–,–,–,–,–,–,–,–
"Cc1nc(Nc2ncc(C(=O)Nc3c(C)cccc3Cl)s2)cc(N2CCN(CCO)CC2)n1 [Dasatinib] + CC(=O)Nc1cccc(-n2c(=O)n(C3CC3)c(=O)c3c(Nc4ccc(I)cc4F)n(C)c(=O)c(C)c32)c1 [Trametinib] (first compound max 2 µM, 7x7, partner max 1 µM)",0.0313,-0.112,-0.0698,-0.0707,-0.125,0.0099,-0.0945,-0.0569,-0.0621,0.0159,0.731,1,0.749,0.791,–,0,0.721,0.726,0.441,0.62
"COc1cc2ncnc(Nc3ccc(F)c(Cl)c3)c2cc1OCCCN1CCOCC1 [Gefitinib] + CC(C)n1c(=O)n(C)c2cnc3cc(F)c(-c4ccc(OCCCN5CCCCC5)nc4)cc3c21 [AZD1390] (first compound max 10 µM, 7x7, partner max 0.3 µM)",0.0579,-0.0614,-0.0848,-0.0829,-0.0591,-0.0615,-0.0549,-0.0759,-0.0438,-0.0646,0.387,0.0507,0.0723,0.368,–,0,0.486,0.238,0.0868,0.0866
"N#Cc1cnc(Nc2cc(NC[C@H]3CNCCO3)c(C(F)(F)F)cn2)cn1 [SRA737] + C=CCn1c(=O)c2cnc(Nc3ccc(N4CCN(C)CC4)cc3)nc2n1-c1cccc(C(C)(C)O)n1 [AZD1775] (first compound max 10 µM, partner max 1 µM)",0.154,0.0233,0.0804,-0.0285,0.0532,0.163,0.0819,0.0488,-0.0382,0.0566,–,–,–,–,–,–,–,–,–,–
"N#Cc1cnc(Nc2cc(NC[C@H]3CNCCO3)c(C(F)(F)F)cn2)cn1 [SRA737] + CCc1c2c(nc3ccc(O)cc13)-c1cc3c(c(=O)n1C2)COC(=O)[C@]3(O)CC [SN-38] (first compound max 10 µM, 7x7, partner max 0.3 µM)",0.0252,-0.0191,0.0231,-0.0867,-0.0488,-0.0351,-0.0463,-0.0859,0.0191,0.0241,–,–,–,–,–,–,–,–,–,–
"N#Cc1cnc(Nc2cc(NC[C@H]3CNCCO3)c(C(F)(F)F)cn2)cn1 [SRA737] + Nc1ccn([C@@H]2O[C@H](CO)[C@@H](O)C2(F)F)c(=O)n1 [Gemcitabine] (first compound max 10 µM, 7x7, partner max 0.3 µM)",0.122,0.0224,0.0032,-0.0356,0.0158,0.0366,-0.0532,-0.0984,-0.0301,-0.0589,–,–,–,–,–,–,–,–,–,–
"N#Cc1cnc(Nc2cc(NC[C@H]3CNCCO3)c(C(F)(F)F)cn2)cn1 [SRA737] + O=c1[nH]cc(F)c(=O)[nH]1 [5-Fluorouracil] (first compound max 10 µM, 7x7, partner max 20 µM)",0.0135,0.0104,0.0119,-0.0547,-0.0494,-0.0068,0.0358,0.0101,-0.0389,-0.0549,–,–,–,–,–,–,–,–,–,–
"C[C@@H](c1ccc2nccn2c1)n1nnc2ncc(-c3cnn(C)c3)nc21 [Savolitinib] + CC1(C)CCC(CN2CCN(c3ccc(C(=O)NS(=O)(=O)c4ccc(NCC5CCOCC5)c([N+](=O)[O-])c4)c(Oc4cnc5[nH]ccc5c4)c3)CC2)=C(c2ccc(Cl)cc2)C1 [Venetoclax] (first compound max 1 µM, 7x7, partner max 1 µM)",-0.0231,-0.0738,0.0179,-0.0443,-0.0839,-0.0378,-0.0439,-0.0739,-0.0486,-0.0568,0.0949,0.0977,0.0599,0.0986,–,0.117,0.181,0.147,0.152,0.0979
"C[C@@H](c1ccc2nccn2c1)n1nnc2ncc(-c3cnn(C)c3)nc21 [Savolitinib] + Cc1c2c(nn1C)CSCc1cc(n(C)n1)CSc1cc(c3ccccc3c1)OCCCc1c(C(=O)O)n(C)c3c-2c(Cl)ccc13 [AZD5991] (first compound max 1 µM, 7x7, partner max 1 µM)",-0.01,-0.0437,0.023,-0.0103,-0.011,-0.0122,-0.0229,-0.0237,-0.0467,-0.0486,0.273,0.113,0.154,0.162,–,0.273,0.23,0.238,0.218,0.138
